US20240252488A1 (KOREA RESEARCH INSTITUTE OF CHEMICAL TECHNOLOGY, priority 2020, published 2024)

Columns and labels:
FADD−/− Jurkat cells = assay: Necroptosis inhibition assay, TNF-α-induced necroptosis (CellTiter-Glo 2.0); type: cell-based, human; details: TNF-α 15 ng/mL, FADD−/− Jurkat cells; for Necroptosis inhibition assay (Rescue %) 1 μM: compound 1 μM; for Necroptosis inhibition assay (Rescue %) 10 μM: compound 10 μM
How it was run: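 Tested at three fixed concentrations (0.1, 1, 10 μM final) with a 30-minute room-temperature preincubation ahead of 15 ng/mL TNF-α challenge lasting 20 to 24 hours. Inhibition rate and cytotoxicity derive from ATP luminescence.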

MLKL [1] = molecular target: T1, MLKL (Homo sapiens, UniProt Q8NB16); assay: MLKL degradation assay in HepG2 cell line (western blot); type: cell-based; parameters: endogenous in cells; host or cells: HepG2 or HaCaT; details: cell line not given; for Degradation assay (Degradation %) 1 μM: compound 1 μM; for Degradation assay (Degradation %) 10 μM: compound 10 μM
T1 sequence (Q8NB16 1-471): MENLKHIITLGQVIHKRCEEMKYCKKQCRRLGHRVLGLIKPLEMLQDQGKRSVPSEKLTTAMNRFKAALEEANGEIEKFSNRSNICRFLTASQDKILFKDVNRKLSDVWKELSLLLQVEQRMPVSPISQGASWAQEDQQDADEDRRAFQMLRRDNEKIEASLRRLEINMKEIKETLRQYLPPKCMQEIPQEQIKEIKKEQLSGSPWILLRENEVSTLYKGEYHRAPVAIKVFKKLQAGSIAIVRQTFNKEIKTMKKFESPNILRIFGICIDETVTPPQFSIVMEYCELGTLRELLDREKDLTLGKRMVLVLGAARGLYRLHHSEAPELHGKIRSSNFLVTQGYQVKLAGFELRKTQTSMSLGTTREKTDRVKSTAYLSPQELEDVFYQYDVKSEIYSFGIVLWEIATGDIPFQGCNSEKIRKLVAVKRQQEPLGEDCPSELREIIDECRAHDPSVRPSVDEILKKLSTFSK
How it was run: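 Degradation is judged from MLKL band intensity on immunoblots of HepG2 lysates taken after 20-24 hours of compound at final 1 or 10 μM.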

MLKL [2] = molecular target: T1, MLKL; assay: Measurement of binding affinity with MLKL receptor (competitive binding assay, Kd); parameters: made in house; host or cells: HEK 293 cell line (T7 phage in E. coli BL21-derived host is also described)
How it was run: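 Competition binding of kinase tagged with DNA for qPCR detection, expressed in HEK 293 cells, against immobilized ligand on beads. Final DMSO 0.9%. Kd derived from kinase amount in eluates measured by qPCR.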

Compound | Degradation assay (Degradation %) 1 μM (MLKL [1]) [%] | Degradation assay (Degradation %) 10 μM (MLKL [1]) [%] | Kd (MLKL [2]) [nM] | Necroptosis inhibition assay (Rescue %) 1 μM (FADD−/− Jurkat cells) [%] | Necroptosis inhibition assay (Rescue %) 10 μM (FADD−/− Jurkat cells) [%]
Nc1ncc(-c2cnn(C3CCN(CCCN4CC5CN(C(=O)COc6ccc7c(c6)C(=O)N(C6CCC(=O)NC6=O)C7=O)CC5C4)CC3)c2)nc1C(=O)O[C@@H](C(=O)Nc1ccc(F)cc1)c1ccccc1 (stereo partly drawn) [TDH-466, (R)-2-((4-fluorophenyl)amino)-2-oxo-1-phenylethyl 3-amino-6-(1-(1-(3-(5-(2-((2-(2,6-dioxopiperidin-3-yl)-1,3-dioxoisoindolin-5-yl)oxy)acetyl)hexahydropyrrolo[3,4-c]pyrrol-2(1H)-yl)propyl)piperidin-4-yl)-1H-pyrazol-4-yl)pyrazine-2-carboxylate] | 60.76 | 86.28 | 0.41 | 54.2 | 26.69
Nc1ncc(-c2cnn(C3CCN(CCCN4CC5CN(C(=O)CNc6ccc7c(c6)C(=O)N(C6CCC(=O)NC6=O)C7=O)CC5C4)CC3)c2)nc1C(=O)O[C@@H](C(=O)Nc1ccc(F)cc1)c1ccccc1 (stereo partly drawn) [TDH-467, (R)-2-((4-fluorophenyl)amino)-2-oxo-1-phenylethyl 3-amino-6-(1-(1-(3-(5-((2-(2,6-dioxopiperidin-3-yl)-1,3-dioxoisoindolin-5-yl)glycyl)hexahydropyrrolo[3,4-c]pyrrol-2(1H)-yl)propyl)piperidin-4-yl)-1H-pyrazol-4-yl)pyrazine-2-carboxylate] | 93.95 | 86.45 | 0.5 | 54.19 | −9.09
Nc1ncc(-c2cnn(C3CCN(C4CC5(CCN(CC6CCN(c7ccc8c(c7)C(=O)N(C7CCC(=O)NC7=O)C8=O)CC6)CC5)C4)CC3)c2)nc1C(=O)O[C@@H](C(=O)Nc1ccc(F)cc1)c1ccccc1 (stereo partly drawn) [TDH-472, (R)-2-((4-fluorophenyl)amino)-2-oxo-1-phenylethyl 3-amino-6-(1-(1-(7-((1-(2-(2,6-dioxopiperidin-3-yl)-1,3-dioxoisoindolin-5-yl)piperidin-4-yl)methyl)-7-azaspiro[3.5]nonan-2-yl)piperidin-4-yl)-1H-pyrazol-4-yl)pyrazine-2-carboxylate] | 50.63 | 69.94 | 1.6 | 27.45 | 1.07
Nc1ncc(-c2cnn(C3CCN(CC4CCN(CC5CCN(c6ccc7c(c6)C(=O)N(C6CCC(=O)NC6=O)C7=O)CC5)CC4)CC3)c2)nc1C(=O)O[C@@H](C(=O)Nc1ccc(F)cc1)c1ccccc1 (stereo partly drawn) [TDH-473, (R)-2-((4-fluorophenyl)amino)-2-oxo-1-phenylethyl 3-amino-6-(1-(1-((1-((1-(2-(2,6-dioxopiperidin-3-yl)-1,3-dioxoisoindolin-5-yl)piperidin-4-yl)methyl)piperidin-4-yl)methyl)piperidin-4-yl)-1H-pyrazol-4-yl)pyrazine-2-carboxylate] | 63.51 | 73.71 | 1.7 | 28.37 | −13.59
Nc1ncc(-c2cnn(C3CCN(CCCN4CCN(CC5CCN(c6ccc7c(c6)C(=O)N(C6CCC(=O)NC6=O)C7=O)CC5)CC4)CC3)c2)nc1C(=O)O[C@@H](C(=O)Nc1ccc(F)cc1)c1ccccc1 (stereo partly drawn) [TDH-474, (R)-2-((4-fluorophenyl)amino)-2-oxo-1-phenylethyl 3-amino-6-(1-(1-(3-(4-((1-(2-(2,6-dioxopiperidin-3-yl)-1,3-dioxoisoindolin-5-yl)piperidin-4-yl)methyl)piperazin-1-yl)propyl)piperidin-4-yl)-1H-pyrazol-4-yl)pyrazine-2-carboxylate] | 54.33 | 68.31 | 0.95 | 25.61 | 5.98

More lines, main results first:

Degradation assay (Degradation %) 1 μM (MLKL [1]) [%] | Degradation assay (Degradation %) 10 μM (MLKL [1]) [%] | Kd (MLKL [2]) [nM] | Compound | Necroptosis inhibition assay (Rescue %) 1 μM (FADD−/− Jurkat cells) [%] | Necroptosis inhibition assay (Rescue %) 10 μM (FADD−/− Jurkat cells) [%]
81.77 | 60.49 | 0.34 | Nc1ncc(-c2cnn(C3CCN(CCC4CCN(C(=O)CCc5ccc6c(c5)CN(C5CCC(=O)NC5=O)C6=O)CC4)CC3)c2)nc1C(=O)O[C@@H](C(=O)Nc1ccc(F)cc1)c1ccccc1 (stereo partly drawn) [TDH-475, (R)-2-((4-fluorophenyl)amino)-2-oxo-1-phenylethyl 3-amino-6-(1-(1-(2-(1-(3-(2-(2,6-dioxopiperidin-3-yl)-1-oxoisoindolin-5-yl)propanoyl)piperidin-4-yl)ethyl)piperidin-4-yl)-1H-pyrazol-4-yl)pyrazine-2-carboxylate] | 31.75 | 7.21
87.94 | 73.34 | 0.32 | Nc1ncc(-c2cnn(C3CCN(CCCN4CCN(C(=O)CCc5ccc6c(c5)CN(C5CCC(=O)NC5=O)C6=O)CC4)CC3)c2)nc1C(=O)O[C@@H](C(=O)Nc1ccc(F)cc1)c1ccccc1 (stereo partly drawn) [TDH-476, (R)-2-((4-fluorophenyl)amino)-2-oxo-1-phenylethyl 3-amino-6-(1-(1-(3-(4-(3-(2-(2,6-dioxopiperidin-3-yl)-1-oxoisoindolin-5-yl)propanoyl)piperazin-1-yl)propyl)piperidin-4-yl)-1H-pyrazol-4-yl)pyrazine-2-carboxylate] | 47.52 | 25.23
92.48 | 90.67 | 0.26 | COc1ccc(C(=O)N2CCC(CN3CCC(CN4CCC(n5cc(-c6cnc(N)c(C(=O)O[C@@H](C(=O)Nc7ccc(F)cc7)c7ccccc7)n6)cn5)CC4)CC3)CC2)cc1N1CCC(=O)NC1=O [TDH-477, (R)-2-((4-fluorophenyl)amino)-2-oxo-1-phenylethyl 3-amino-6-(1-(1-((1-((1-(3-(2,4-dioxotetrahydropyrimidin-1(2H)-yl)-4-methoxybenzoyl)piperidin-4-yl)methyl)piperidin-4-yl)methyl)piperidin-4-yl)-1H-pyrazol-4-yl)pyrazine-2-carboxylate] | 62.38 | 21.83
89.29 | 86.88 | 0.26 | COc1ccc(C(=O)N2CCC(CN3CCN(CCCN4CCC(n5cc(-c6cnc(N)c(C(=O)O[C@@H](C(=O)Nc7ccc(F)cc7)c7ccccc7)n6)cn5)CC4)CC3)CC2)cc1N1CCC(=O)NC1=O [TDH-478, (R)-2-((4-fluorophenyl)amino)-2-oxo-1-phenylethyl 3-amino-6-(1-(1-(3-(4-((1-(3-(2,4-dioxotetrahydropyrimidin-1(2H)-yl)-4-methoxybenzoyl)piperidin-4-yl)methyl)piperazin-1-yl)propyl)piperidin-4-yl)-1H-pyrazol-4-yl)pyrazine-2-carboxylate] | 92.11 | 43.19
